Test results as given in US11071731B2, “Allosteric modulators of the mu opioid receptor” (Chiromics, LLC, priority 2017, dated 2021).
Read-outs that look alike come from different tables or passages of the source.

Legend:
CD1 mice = assay: Warm water tail-flick assay, compound alone (basal EM1 only); assay type: in vivo; conditions: 15 mg/kg subcutaneous, 30 minutes after dosing, no exogenous EM1
From the text: An acute pain model was used to determine the analgesic effect of a MOR PAM administered by itself (i.e., in the absence of exogenous opioid). This approach avoids the complexity of matching the pharmacokinetic profile of endomorphin release in response to a pain-inducing insult with a (1) particular MOR PAM (to account for basal endomorphin analgesis) and (2) the measurement window of the study, as would be required for a chronic pain study. Accordingly, an acute pain model, in which the pharmacodynamic measurement was performed directly after the insult, was employed. This was expected to isolate the low basal levels of EM1 analgesis that existed prior to the insult, thereby eliminating the contribution of the time course of release of endogenous opioids in response to the insult. Mousa et al., supra.
The warm water tail-flick assay was chosen as the acute pain model for the reasons described above. […] Przewlocka et al., (1999), supra. First, minimum and sub-efficacious dose of EM1, applied via intrathecal injection to rats, were identified. […] In addition, the time required for maximal response to an intrathecal injection of EM1 to be observed, as well as the time required for a return to basal levels of antinociception, were determined and likewise found to be in agreement with those found in the literature. […]

[1] = Terminal pharmacokinetics: plasma, brain and cerebrospinal fluid concentrations; assay type: in vivo; conditions: one hour after 15 mg/kg SC or IP, CD-1 mice
Procedure: Given that opioid receptors are highly concentrated in the dorsal root ganglion (DRG) and brain (Martin-Schild et al., supra), terminal pharmacokinetic studies were performed to verify the concentration in the plasma, cerebrospinal fluid and brain.

MOR [2] = biological target: T1, MOR (Homo sapiens, UniProt P35372); assay: EM1 concentration-response curves for β-arrestin recruitment with or without compound, full functional allosteric model; assay type: cell-based
T1 sequence (P35372 whole entry): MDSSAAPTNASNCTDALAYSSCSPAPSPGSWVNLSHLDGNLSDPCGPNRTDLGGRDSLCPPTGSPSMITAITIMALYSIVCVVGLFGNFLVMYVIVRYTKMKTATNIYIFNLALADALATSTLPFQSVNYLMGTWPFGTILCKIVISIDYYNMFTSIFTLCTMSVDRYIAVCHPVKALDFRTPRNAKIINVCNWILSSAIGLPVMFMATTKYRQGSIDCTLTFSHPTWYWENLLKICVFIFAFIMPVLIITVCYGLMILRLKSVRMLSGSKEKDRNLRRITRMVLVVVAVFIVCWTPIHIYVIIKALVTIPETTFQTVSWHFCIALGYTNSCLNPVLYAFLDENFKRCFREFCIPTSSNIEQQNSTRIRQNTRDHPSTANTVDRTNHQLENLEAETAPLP

[3] = Plasma, brain and spinal cord concentrations after subcutaneous dosing; assay type: in vivo; conditions: subcutaneous 15 mg/kg, ICR rats
Procedure: Concentrations of subcutaneously injected compound 9 in spinal tissue (where the DRG are located) were also assessed.

Sprague-Dawley rats = assay: Gastrointestinal transit of charcoal bolus and stomach contents; conditions: morphine 10 mg/kg, compound 9 15, 30, 60 mg/kg
MOR [4] = biological target: T1, MOR; assay type: cell-based; conditions: cAMP; EC20 EM2 agonism of MOR
MOR [5] = biological target: T1, MOR; assay: cell-based; conditions: EC20 morphine agonism of MOR
MOR [6] = biological target: T1, MOR; assay type: cell-based; conditions: β-arrestin; EC20 EM2 agonism of MOR
MOR [7] = biological target: T1, MOR; assay: cell-based; conditions: EC20 Oxycodone agonism of MOR
MOR [8] = biological target: T1, MOR; assay type: cell-based
MOR [9] = biological target: T1, MOR; assay: cell-based; conditions: EC20 Oxycodone agonism of MOR; remark: listed apart in the source
[10] = Plasma concentration time-course after SC or IP dosing; assay type: in vivo; conditions: 15 mg/kg, intraperitoneal or subcutaneous, CD-1 mice, blood samples
Procedure: To be useful as a therapeutic, a MOR PAM must not only be able to activate endogenous and non-endogenous orthosteric ligands of the MOR, it must also persist in the body in concentrations sufficient to exert its allosteric effect. To test intracorporeal persistence, murine models were chosen, based on the preponderance of data available linking endogenous opioids to analgesic mechanisms. Compound 9 (Table 10) was formulated for dosing in CD-1 mice. Two mice per group were tested and each group was administered 15 mg/kg of the compound. Concentrations of the compound were measured by mass spectrometry of blood samples.

ICR rats = assay: Warm water tail-flick assay with intrathecal exogenous EM1; assay type: in vivo
Procedure: The warm water tail-flick assay was chosen as the acute pain model for the reasons described above. […] Przewlocka et al., (1999), supra. First, minimum and sub-efficacious dose of EM1, applied via intrathecal injection to rats, were identified. The values obtained for the minimum (3 ug/kg) and sub-efficacious dose of EM1 (1 ug/kg) are in agreement with those found in the literature. Horvath (2000), supra. In addition, the time required for maximal response to an intrathecal injection of EM1 to be observed, as well as the time required for a return to basal levels of antinociception, were determined and likewise found to be in agreement with those found in the literature.
. For these experiments, the delay in tail flick induced by EM1 alone was compared to the delay in tail flick when compound 9 was dosed in ICR-rats in combination with intrathecal administration of minimum and sub-efficacious doses of EM1. […]; These effects might be due to any of the following: Ton[Endomorphin], KElim[Endomorphin], Toff[Endomorphin], KI[Endomorphin], and possibly additional mechanisms.
[…]. The ability to rescue a sub-therapeutic dose of the endogenous ligand in a dose- and time-dependent manner with a subtype selective MOR PAM has significant implications for the clinical viability of the use of MOR PAMs in acute and chronic pain settings.

Fc1cnc(Cl)nc1N1CCCCC1c1cccc(C(F)(F)F)c1 (single isomer, unassigned) [compound 9]
antinociceptive effect, tail-flick latency (CD1 mice): No antinociceptive effects were observed | persistence in brain and plasma [1]: persists in brain and plasma, at therapeutically relevant concentrations | effective potency for PAM effect (MOR [2]): 0.0708 µM | factor of increase of the affinity (α) of EM1 (MOR [2]): 9 | factor of increase of the efficacy (β) of EM1 (MOR [2]): 3 | shift in the potency of EM1 (MOR [2]): concentration-dependent and saturable leftward shifts | αβ product, in vitro (MOR [2]; β-arrestin endomorphin responses): 27 | exposure in spinal tissue and brain [3]: good exposures in spinal tissue | stomach weight (Sprague-Dawley rats; 20 minutes after charcoal): unchanged | GI transit (Sprague-Dawley rats; subcutaneous 1 hour before charcoal): unchanged | Max. Response (MOR [4]): 80 | EC50 (MOR [5]; RC50, cAMP): 2.95 µM | Max. Response (MOR [5]; cAMP): 38 | Max. Response (MOR [6]): 138 | EC50 (MOR [7]; RC50, cAMP): 3.18 µM | Max. Response (MOR [7]; cAMP): 40 | shift in the potency of EM1 (MOR [8]; cAMP assay): concentration-dependent and saturable leftward shifts | factor of increase of the affinity (α) of EM1 (MOR [8]; cAMP signaling): 2 | factor of increase of the efficacy (β) of EM1 (MOR [8]; cAMP signaling): 1.8 | effective potency for PAM effect (MOR [8]; cAMP signaling, EM1): 0.044 µM | EC50 (MOR [9]; RC50, β-arrestin): 11.1 µM | Max. Response (MOR [9]; β-arrestin): 296 | exposure and half-life [10]: exposures and an a half-life appropriate for in vivo studies | effect on antinociception of a minimally efficacious dose of EM1 (ICR rats; rat, in vivo): potentiates the effect of suboptimal doses of EM-1 | effect on antinociception of a sub-efficacious dose of EM1 (ICR rats; rat, in vivo): potentiates the effect of sub-efficaceous doses of the opioid | αβ product, in vivo effects fit (ICR rats; tail-flick, EM1 3 μg intrathecal (FIG. 12C)): 31.5
